Our source for the IC50 values is patent US20240336574A1 (LATIGO BIOTHERAPEUTICS, INC., priority 2021, published 2024).

Where two headings read alike, the source gives them in different places.

This test addresses T1, recombinant human NaV1.8 stably transfected HEK cells (Homo sapiens, UniProt Q9Y5Y9).
T1 construct: expressed in transfected cells; host or cells: HEK cells, stably transfected
Briefly: Compound profiling on NaV1.8, human NaV1.8 cell line, SyncroPatch384PE automated patch clamp assay (Example 102, first set of compounds, Table 16). Type of test: cell-based. The conditions noted are these: human NaV1.8 HEK cells, Table 16 (first set of compounds). An outline of the steps:
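IC50s come from two read-outs: resting-state block (P1, 10 mV step from −120 mV) and inactivated-state block (P2, after 10 s at −40 mV), scaled between DMSO and 250 μM tetracaine. Compounds (20–0.001 μM final, 1:3 steps) were applied for 5 min, 15 s sweeps. Cells kept at 30 °C the day before.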

Where [1] appears, read: inactivated state block (P2 measurement), read-out: P2IC50.
The mark [2] stands for this setting: resting state block (P1 measurement), read-out: P1IC50.

T1 sequence (Q9Y5Y9 whole entry): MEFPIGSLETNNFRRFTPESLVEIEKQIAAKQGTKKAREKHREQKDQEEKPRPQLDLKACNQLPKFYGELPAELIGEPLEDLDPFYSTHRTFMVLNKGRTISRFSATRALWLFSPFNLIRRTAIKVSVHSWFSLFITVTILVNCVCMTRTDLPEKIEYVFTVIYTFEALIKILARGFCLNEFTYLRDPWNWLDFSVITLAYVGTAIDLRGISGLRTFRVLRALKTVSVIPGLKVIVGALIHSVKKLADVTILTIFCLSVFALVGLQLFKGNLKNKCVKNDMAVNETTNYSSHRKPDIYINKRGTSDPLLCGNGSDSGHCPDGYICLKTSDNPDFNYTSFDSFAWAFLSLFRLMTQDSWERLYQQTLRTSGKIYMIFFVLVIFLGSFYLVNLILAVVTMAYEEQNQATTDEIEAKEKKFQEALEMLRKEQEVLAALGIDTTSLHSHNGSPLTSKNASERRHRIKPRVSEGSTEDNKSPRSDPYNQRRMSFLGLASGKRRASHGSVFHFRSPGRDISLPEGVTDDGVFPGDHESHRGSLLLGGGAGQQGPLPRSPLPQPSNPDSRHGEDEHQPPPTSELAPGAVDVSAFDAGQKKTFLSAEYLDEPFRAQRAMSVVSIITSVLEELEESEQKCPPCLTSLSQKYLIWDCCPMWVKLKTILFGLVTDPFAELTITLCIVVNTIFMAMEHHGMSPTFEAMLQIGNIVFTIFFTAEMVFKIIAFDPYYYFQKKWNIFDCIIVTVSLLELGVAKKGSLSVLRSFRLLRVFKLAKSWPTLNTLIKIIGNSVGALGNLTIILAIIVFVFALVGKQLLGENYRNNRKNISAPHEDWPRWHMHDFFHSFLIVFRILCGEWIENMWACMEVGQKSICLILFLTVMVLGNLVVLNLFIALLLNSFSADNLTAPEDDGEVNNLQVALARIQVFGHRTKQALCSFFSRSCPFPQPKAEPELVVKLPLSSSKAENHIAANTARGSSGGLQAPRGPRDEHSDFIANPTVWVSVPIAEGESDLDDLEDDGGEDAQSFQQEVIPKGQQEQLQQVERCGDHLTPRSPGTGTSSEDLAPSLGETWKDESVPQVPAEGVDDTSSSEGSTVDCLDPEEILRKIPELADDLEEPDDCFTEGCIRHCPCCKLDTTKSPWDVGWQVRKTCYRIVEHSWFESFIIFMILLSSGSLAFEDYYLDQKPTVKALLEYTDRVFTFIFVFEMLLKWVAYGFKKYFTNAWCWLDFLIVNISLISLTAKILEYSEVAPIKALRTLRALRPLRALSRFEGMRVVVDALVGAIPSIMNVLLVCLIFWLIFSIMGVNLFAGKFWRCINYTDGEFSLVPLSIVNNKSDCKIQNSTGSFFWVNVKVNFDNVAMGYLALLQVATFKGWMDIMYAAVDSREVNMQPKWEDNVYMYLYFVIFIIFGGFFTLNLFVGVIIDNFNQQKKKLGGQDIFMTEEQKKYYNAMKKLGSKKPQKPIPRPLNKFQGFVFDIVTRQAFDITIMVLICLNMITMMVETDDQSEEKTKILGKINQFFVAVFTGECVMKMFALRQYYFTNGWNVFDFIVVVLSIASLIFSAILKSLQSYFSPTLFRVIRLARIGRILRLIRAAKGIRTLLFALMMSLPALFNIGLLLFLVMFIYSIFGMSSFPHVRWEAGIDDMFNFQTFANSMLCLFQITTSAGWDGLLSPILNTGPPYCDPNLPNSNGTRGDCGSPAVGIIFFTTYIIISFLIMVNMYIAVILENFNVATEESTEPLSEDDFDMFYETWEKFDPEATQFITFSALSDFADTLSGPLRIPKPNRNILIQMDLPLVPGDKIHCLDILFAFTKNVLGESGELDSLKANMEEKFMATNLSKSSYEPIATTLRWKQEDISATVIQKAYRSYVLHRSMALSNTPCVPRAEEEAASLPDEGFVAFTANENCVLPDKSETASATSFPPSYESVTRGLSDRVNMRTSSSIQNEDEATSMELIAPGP

In the case of `COc1cc(C#N)ccc1Oc1nnc(-c2cncs2)c(C)c1C(=O)Nc1cccc(S(C)(=N)=O)c1` (centres unmarked) [Compound 1460, 3-(4-cyano-2-methoxy-phenoxy)-5-methyl-N-[3-(methylsulfonimidoyl)phenyl]-6-thiazol-5-yl-pyridazine-4-carboxamide], the IC50 by setting is: under setting [1], 0.2 to 0.5 µM; under setting [2], 0.2 to 0.5 µM.
For the compound `COc1ncc(-c2nnc(Oc3ccc(C#N)cc3OC)c(C(=O)Nc3cccc(S(C)(=N)=O)c3)c2C)s1` (centres unmarked) [Compound 1461, 3-(4-cyano-2-methoxy-phenoxy)-6-(2-methoxythiazol-5-yl)-5-methyl-N-[3-(methylsulfonimidoyl)phenyl]pyridazine-4-carboxamide; formic acid], the IC50 under setting [1] lay in the range of 0.04 to 0.2 µM and the IC50 under setting [2] lay in the range of 0.2 to 0.5 µM.
The like results for `COc1cc(C#N)ccc1Oc1nnc(-c2ncco2)c(C)c1C(=O)Nc1cccc(S(C)(=N)=O)c1` (centres unmarked) [Compound 1462, 3-(4-cyano-2-methoxy-phenoxy)-5-methyl-N-[3-(methylsulfonimidoyl)phenyl]-6-oxazol-2-yl-pyridazine-4-carboxamide; formic acid] were, in that order, 0.2 to 0.5 µM and 0.2 to 0.5 µM.
The like results for `COc1cc(C#N)ccc1Oc1nnc(-c2nccs2)c(C)c1C(=O)Nc1cccc(S(C)(=N)=O)c1` (centres unmarked) [Compound 1463, 3-(4-cyano-2-methoxy-phenoxy)-5-methyl-N-[3-(methylsulfonimidoyl)phenyl]-6-thiazol-2-yl-pyridazine-4-carboxamide] were, in that order, not above 0.02 µM and not above 0.02 µM.
The like results for `COc1cc(C#N)ccc1Oc1nnc(-c2ccc(C)cn2)c(C)c1C(=O)Nc1cccc(S(C)(=N)=O)c1` (centres unmarked) [Compound 1464, 3-(4-cyano-2-methoxy-phenoxy)-5-methyl-6-(5-methyl-2-pyridyl)-N-[3-(methylsulfonimidoyl)phenyl]pyridazine-4-carboxamide] were, in that order, 0.2 to 0.5 µM and 0.2 to 0.5 µM.
As to `Cc1cc(C#N)ccc1Oc1nnc(C(F)(F)F)c(C)c1C(=O)Nc1cccc(S(C)(=O)=O)c1` [Compound 1465, 3-(4-cyano-2-methylphenoxy)-N-(3-methanesulfonylphenyl)-5-methyl-6-(trifluoromethyl)pyridazine-4-carboxamide], the IC50 runs as follows: under setting [1], not above 0.02 µM; under setting [2], not above 0.02 µM.
As to `Cc1cc(F)ccc1Oc1nnc(C(F)(F)F)c(C)c1C(=O)Nc1cccc(S(N)(=O)=O)c1` [Compound 1466, 3-(4-fluoro-2-methylphenoxy)-5-methyl-N-(3-sulfamoylphenyl)-6-(trifluoromethyl)pyridazine-4-carboxamide], the IC50 reads like this: under setting [1], not above 0.02 µM; under setting [2], not above 0.02 µM.
Consider `Cc1c(C(F)(F)F)nnc(Oc2ccc(OC(F)(F)F)cc2F)c1C(=O)Nc1cccc(S(C)(=O)=O)c1` [Compound 1467, 3-[2-fluoro-4-(trifluoromethoxy)phenoxy]-N-(3-methanesulfonylphenyl)-5-methyl-6-(trifluoromethyl)pyridazine-4-carboxamide], for which the IC50 is, setting by setting: under setting [1], not above 0.02 µM; under setting [2], not above 0.02 µM.
For the compound `Cc1nc(C(F)(F)F)ccc1Oc1nnc(C(F)(F)F)c(C)c1C(=O)Nc1cccc(S(C)(=O)=O)c1` [Compound 1468, N-(3-methanesulfonylphenyl)-5-methyl-3-{[2-methyl-6-(trifluoromethyl)pyridin-3-yl]oxy}-6-(trifluoromethyl)pyridazine-4-carboxamide], the IC50 was not above 0.02 µM under setting [1] and not above 0.02 µM under setting [2].
As for `Cc1nc(Br)ccc1Oc1nnc(C(F)(F)F)c(C)c1C(=O)Nc1cccc(S(C)(=O)=O)c1` [Compound 1469, 3-[(6-bromo-2-methylpyridin-3-yl)oxy]-N-(3-methanesulfonylphenyl)-5-methyl-6-(trifluoromethyl)pyridazine-4-carboxamide], the IC50 was not above 0.02 µM under setting [1] and not above 0.02 µM under setting [2].
For the compound `Cc1c(C(F)(F)F)nnc(OCC23CC(F)(C2)C3)c1C(=O)Nc1cccc(S(C)(=N)=O)c1` (centres unmarked) [Compound 1470, 3-[(3-fluoro-1-bicyclo[1.1.1]pentanyl)methoxy]-5-methyl-N-[3-(methylsulfonimidoyl)phenyl]-6-(trifluoromethyl)pyridazine-4-carboxamide], the IC50 under setting [1] is 0.2 to 0.5 µM and the IC50 under setting [2] fell in the range of 0.2 to 0.5 µM.
As to `COc1c(Oc2nnc(C(F)(F)F)c(C)c2C(=O)Nc2cccnc2)ccc(F)c1F` [Compound 1475, 3-(3,4-difluoro-2-methoxy-phenoxy)-5-methyl-N-(3-pyridyl)-6-(trifluoromethyl)pyridazine-4-carboxamide], the IC50 was not above 0.02 µM under setting [1] and not above 0.02 µM under setting [2].
As for `COc1c(Oc2nnc(C(F)(F)F)c(C)c2C(=O)Nc2ccc[n+]([O-])c2)ccc(F)c1F` [Compound 1476, 3-(3,4-difluoro-2-methoxy-phenoxy)-5-methyl-N-(1-oxidopyridin-1-ium-3-yl)-6-(trifluoromethyl)pyridazine-4-carboxamide], the IC50 under setting [1] is not above 0.02 µM and the IC50 under setting [2] is not above 0.02 µM.
`Cc1c(Oc2nnc(C(F)(F)F)c(C)c2C(=O)Nc2cccc(S(C)(=N)=O)c2)ccc(Cl)c1F` (centres unmarked) [Compound 1486, 3-(4-chloro-3-fluoro-2-methyl-phenoxy)-5-methyl-N-[3-(methylsulfonimidoyl)phenyl]-6-(trifluoromethyl)pyridazine-4-carboxamide]: the IC50 by setting is: under setting [1], not above 0.02 µM; under setting [2], not above 0.02 µM.
`COc1c(Oc2nnc(C(F)(F)F)c(C)c2C(=O)Nc2cccc(S(C)(=N)=O)c2)ccc(Cl)c1F` (centres unmarked) [Compound 1489, 3-(4-chloro-3-fluoro-2-methoxy-phenoxy)-5-methyl-N-[3-(methylsulfonimidoyl)phenyl]-6-(trifluoromethyl)pyridazine-4-carboxamide]: the IC50 by setting is: under setting [1], not above 0.02 µM; under setting [2], not above 0.02 µM.
For the compound `Cc1c(C(F)(F)F)nnc(Oc2ccc(OC3CCC3)c(F)c2F)c1C(=O)Nc1cccc(S(C)(=N)=O)c1` (centres unmarked) [Compound 1492, 3-[4-(cyclobutoxy)-2,3-difluoro-phenoxy]-5-methyl-N-[3-(methylsulfonimidoyl)phenyl]-6-(trifluoromethyl)pyridazine-4-carboxamide], the IC50 under setting [1] was not above 0.02 µM and the IC50 under setting [2] was not above 0.02 µM.
`Cc1c(C(F)(F)F)nnc(Oc2ccc(OC(F)(F)F)cc2F)c1C(=O)Nc1cccc(S(C)(=N)=O)c1` (centres unmarked) [Compound 1495, 3-[2-fluoro-4-(trifluoromethoxy)phenoxy]-5-methyl-N-[3-(methylsulfonimidoyl)phenyl]-6-(trifluoromethyl)pyridazine-4-carboxamide]: the IC50 under setting [1] was not above 0.02 µM and the IC50 under setting [2] is not above 0.02 µM.
`Cc1nc(OC2CCC2)ccc1Oc1nnc(C(F)(F)F)c(C)c1C(=O)Nc1cccc(S(C)(=N)=O)c1` (centres unmarked) [Compound 1498, 3-[(6-cyclobutoxy-2-methylpyridin-3-yl)oxy]-N-{3-[imino(methyl)oxo-λ^6-sulfanyl]phenyl}-5-methyl-6-(trifluoromethyl)pyridazine-4-carboxamide]: the IC50 is, setting by setting: under setting [1], 0.04 to 0.2 µM; under setting [2], 0.04 to 0.2 µM.
Take `Cc1c(C(F)(F)F)nnc(Oc2ccc(OC(C)C)c(F)c2F)c1C(=O)Nc1cccc(S(C)(=N)=O)c1` (centres unmarked) [Compound 1501, 3-[2,3-difluoro-4-(propan-2-yloxy)phenoxy]-N-{3-[imino(methyl)oxo-λ^6-sulfanyl]phenyl}-5-methyl-6-(trifluoromethyl)pyridazine-4-carboxamide]: the IC50 is not above 0.02 µM under setting [1] and not above 0.02 µM under setting [2].
As for `COc1ccc(Oc2nnc(C(F)(F)F)c(C)c2C(=O)Nc2cccc(S(C)(=N)=O)c2)c(C)c1F` (centres unmarked) [Compound 1504, 3-(3-fluoro-4-methoxy-2-methylphenoxy)-N-{3-[imino(methyl)oxo-λ^6-sulfanyl]phenyl}-5-methyl-6-(trifluoromethyl)pyridazine-4-carboxamide], the IC50 reads like this: under setting [1], not above 0.02 µM; under setting [2], not above 0.02 µM.
For `COc1ccc(Oc2nnc(C(F)(F)F)c(C)c2C(=O)Nc2cccc(S(C)(=N)=O)c2)c(C)n1` (centres unmarked) [Compound 1507, N-{3-[imino(methyl)oxo-λ^6-sulfanyl]phenyl}-3-[(6-methoxy-2-methylpyridin-3-yl)oxy]-5-methyl-6-(trifluoromethyl)pyridazine-4-carboxamide], the IC50 runs as follows: under setting [1], 0.04 to 0.2 µM; under setting [2], 0.04 to 0.2 µM.
For the compound `Cc1c(C(F)(F)F)nnc(Oc2ccc(C(N)=O)cc2)c1C(=O)Nc1cccc(S(C)(=N)=O)c1` (centres unmarked) [Compound 1513, 3-(4-carbamoylphenoxy)-N-{3-[imino(methyl)oxo-λ^6-sulfanyl]phenyl}-5-methyl-6-(trifluoromethyl)pyridazine-4-carboxamide], the IC50 under setting [1] lay in the range of 0.2 to 0.5 µM and the IC50 under setting [2] is 0.2 to 0.5 µM.
As for `Cc1c(C(F)(F)F)nnc(Oc2c(F)cc(OC(F)(F)F)cc2F)c1C(=O)Nc1cccc(S(C)(=N)=O)c1` (centres unmarked) [Compound 1514, 3-[2,6-difluoro-4-(trifluoromethoxy)phenoxy]-N-{3-[imino(methyl)oxo-λ^6-sulfanyl]phenyl}-5-methyl-6-(trifluoromethyl)pyridazine-4-carboxamide], the IC50 was in the range of 0.04 to 0.2 µM under setting [1] and 0.04 to 0.2 µM under setting [2].
On to `Cc1c(Oc2nnc(C(F)(F)F)c(C)c2C(=O)Nc2cccc(S(C)(=N)=O)c2)ccc(OC(F)(F)F)c1F` (centres unmarked) [Compound 1515, 3-[3-fluoro-2-methyl-4-(trifluoromethoxy)phenoxy]-N-{3-[imino(methyl)oxo-λ^6-sulfanyl]phenyl}-5-methyl-6-(trifluoromethyl)pyridazine-4-carboxamide], for which the IC50 by setting is: under setting [1], not above 0.02 µM; under setting [2], not above 0.02 µM.
Consider `COc1c(Oc2nnc3c(c2C(=O)Nc2cccc(S(C)(=N)=O)c2)CCC3)ccc(F)c1F` (centres unmarked) [Compound 1516, 3-(3,4-difluoro-2-methoxyphenoxy)-N-{3-[imino(methyl)oxo-λ^6-sulfanyl]phenyl}-5H,6H,7H-cyclopenta[c]pyridazine-4-carboxamide], for which the IC50 by setting is: under setting [1], 0.2 to 0.5 µM; under setting [2], 0.2 to 0.5 µM.
